Series [1] relates to CMV strain 759^r D100. The experiment in a line: plaque reduction assay, ganciclovir-resistant strain 759^r D100. Format: cell-based, human CMV. To be noted: Human betaherpesvirus 5, MRC5. As for the experimental part: (§1) The anti-CMV activity of peptide AV-9 was evaluated against two ganciclovir-resistant and two foscarnet-resistant laboratory strains of human CMV in the continuous, human embryonic lung cell line MRC-5.
(§2) To perform the studies, peptide AV-9 was dissolved as a solid in sterile, deionized water to a final stock concentration of 10 mM. This stock solution was subsequently diluted in cell culture medium to obtain the test concentrations used in the study. Ganciclovir (GCV) was dissolved in sterile, deionized water, and the drug concentration measured spectrophotometrically (7.8mM). Foscarnet (phosphonoformic acid, PFA) was dissolved in sterile, deionized water to a final concentration of 100 mM. Aliquots of the stock solutions were stored at -70° C.
(§3) Drug-resistant human CMV strains 759^r D100, GDG^r K17, PFA^r D100 and PFA^r B300 were obtained from Dr. Donald M. Coen, Harvard Medical School, Boston, Mass. […]
(§4) Anti-CMV activity of peptide AV-9, ganciclovir (GCV) and foscarnet (PFA) was assessed by standard plaque reduction assay using 24-well microtiter plates. […]
(§5) MRC-5 cells (4-5×10^5 per well) were grown for 24 hours at 37° C. in 5% CO2 atmosphere in D-MEM/F-12FBS medium containing varying concentrations of drug. […] Vital plaques were counted under a microscope after removing the culture medium from the wells, staining the cells with 1.1% Crystal Violet solution, and washing twice with tap water. […]
In general terms: In a plaque reduction assay, fewer plaques than in the control indicate reduced infectivity or spread.

The nature of series [2]: toxicity control mice, immunosuppressed, uninfected.
Procedure: The mice were immunosuppressed by intraperitoneal (i.p.) injection with 100 mg/kg/day of cyclophosphamide administered on days -1, +3, +6, +10, +14 and +18 relative to virus inoculation. […] In a second portion of the study, the compound was administered i.p. in a dose of 0.1 mg/kg/day once daily from day -2 through +10. Ganciclovir in a dose of 50 mg/kg/day was injected i.p. once daily for 10 days beginning 24 hr post-virus exposure (days +1→+10). A total of 15 infected mice/dose were used. […] Five toxicity control mice were used at each dose; these mice were treated in parallel with the infected mice, and were weighed on the initial day of treatment and again 24 after the final treatment. […] Normal controls were weighed and held in parallel with the toxicity controls.
In series [3] the test system is Smith strain of murine CMV. The experiment in a line: murine CMV infection in cyclophosphamide-immunosuppressed mice. In kind it is in vivo, BALB/c mice. From the text: This immunosuppression model mimics the human patient situation, wherein the HCMV-induced disease in immunosuppressed individuals can often be fatal. The particular model used for evaluating potential antiviral activity has been described by Smee et al in J. Infect. Dis., 1991, 164: 958.
The Smith strain of murine CMV, obtained originally from the American Type Culture Collection (Rockville, Md.) was used. A mouse salivary gland preparation was used for the virus pool. An inoculation of 2×10^4 plaque forming units of the virus was used in the antiviral study. Female BALB/c mice weighing 10-12 g were quarantined 24 hr prior to use, and maintained on Wayne Lab Blox and tap water ad libitum the duration of the study.
Ganciclovir (DHPG) was purchased from a commercial source, and cyclophosphamide was purchased from Sigma Chemical Co. (St. Louis, Mo.).
To determine tissue virus titre, homogenates of infected mouse organs were titrated for virus using C127/I cells in 96-well microplates. Each tissue sample was homogenized and titrated separately with 3 micro wells used per dilution; plates were read by microscopic examination for viral-induced cytopathic effect, with 50% end points determined by the Reed-Muench method. Mean viral titers were expressed at 50% cell culture infectious doses (CCID50)/gram of tissue.
For statistical evaluation, increases in mean day to death and reductions in viral titers were assessed using the two-tailed Mann-Whitney U test. Total survivor increases were evaluated by chi square analysis with Yates'.

In series [4] the test system is CMV strain GDG^r K17. Put plainly: plaque reduction assay, ganciclovir-resistant strain GDG^r K17. In kind it is cell-based, human CMV. The following applies: Human betaherpesvirus 5, MRC5. As for the experimental part:
as §1, §2, §3, §4, §5

Series [5] relates to CMV strain AD-169. The experiment in a line: plaque reduction assay, CMV AD-169 in HFF cells. Format: cell-based, human CMV. To be noted: Human betaherpesvirus 5, AD169, CMV AD-169, HFF. How it is done:
(§6) The following procedures were then used to determine inhibitory effects of AV-9 on the replication of CMV. […] This was accomplished by diluting the stock peptide solution in growth medium (10% fetal bovine serum and 10 μg/ml gentamicin in Dulbecco's MEM (DMEM)) used to overlay the monolayers.
[…] Virus was then allowed to adsorb for 1 hour at 37° C. The virus inoculum was removed and the monolayers were overlayed with DMEM containing 2% FBS, 10 ug/ml gentamicin and a specified concentration of AV-9. Virus was next allowed to replicate for 7 to 10 days until the plaques were judged to be well developed, and then the monolayers were fixed and stained with a solution of 1% crystal violet in 1% formaldehyde,70% ethanol. Finally, plaques (each representing a single viable virion) were counted and checked microscopically.
(§7) In a like manner, plaque reduction assays were also performed against other CMV strains and another CMV host, with comparison against ganciclovir (GCV) and foscarnet (FCV).

Series [6] relates to CMV strain AD-169. Put plainly: CPE assay, CMV AD-169 in HFF cells. In kind it is cell-based. To be noted: Human betaherpesvirus 5, AD169, CMV AD-169, HFF (human foreskin fibroblast), without 24 h drug pretreatment. An excerpt: *CPE assay, all others are plaque reduction assays.
For series [7], the system named is CMV strain AD-169. The experiment in a line: plaque reduction assay, CMV AD-169 in MRC-5 cells. In kind it is cell-based, human CMV. To be noted: Human betaherpesvirus 5, AD169, MRC5, CMV AD-169, MRC-5 (human embryonic lung), 24 h drug pretreatment. How it is done: as §6
After pretreatment with AV-9, the monolayers were overlaid with 0.1 ml log10 dilutions of virus (CMV strain AD-169) ranging from 10^-1 to 10^-6. Virus was then allowed to adsorb for 1 hour at 37° C. The virus inoculum was removed and the monolayers were overlayed with DMEM containing 2% FBS, 10 ug/ml gentamicin and a specified concentration of AV-9. Virus was next allowed to replicate for 7 to 10 days until the plaques were judged to be well developed, and then the monolayers were fixed and stained with a solution of 1% crystal violet in 1% formaldehyde,70% ethanol. Finally, plaques (each representing a single viable virion) were counted and checked microscopically.
as §7

Series [8] relates to CMV strain PFA^r D100. The experiment in a line: plaque reduction assay, foscarnet-resistant strain PFA^r D100. Format: cell-based, human CMV. The following applies: Human betaherpesvirus 5, MRC5. As for the experimental part: as §1, §2, §3, §4, §5
For series [9], the system named is CMV strain PFA^r B300. The experiment in a line: plaque reduction assay, foscarnet-resistant strain PFA^r B300. Format: cell-based, human CMV. The following applies: Human betaherpesvirus 5, MRC5. How it is done: as §1, §2, §3, §4, §5
Where [10] appears, read: 50 mg/kg/day i.p. days +1 to +10, 9 days after virus challenge.

Broadly, the IC50 is the concentration that inhibits the measured activity by half.

Turning to `Nc1nc2c(ncn2COC(CO)CO)c(=O)[nH]1` [GCV, 9-[(1,3-dihydroxy-2-propoxy)methyl]guanine, reference compound], the IC50 in series [1] came out at 30.5 µM; in series [4], 6.1 µM; in [5], 2 µM; in series [6], 5.8 µM. Also, the “Mean Body Weight Change” value in series [2] (50 mg/kg/day i.p. days +1 to +10, start of treatment to 24 hr after final treatment) is given as 4.2 g. The Surv/Total was 5/5 in series [2] (toxicity controls, 50 mg/kg/day i.p., days +1 through +10) and 0/10 in series [3] (infected mice, 50 mg/kg/day i.p., days +1 through +10). In addition, in [3] (50 mg/kg/day i.p. days +1 to +10), the “days after initiation of infection until first deaths” value is at least 21 days. The “Tissue Virus Titer ± S.D., Lung” value in series [3] (setting [10]) worked out at 0 ± 0.0 log10 CCID50/g. Also, the “Tissue Virus Titer ± S.D., Salivary Gland” value in [3] (setting [10]) is recorded as 3.5 ± 0.9 log10 CCID50/g. The “Tissue Virus Titer ± S.D., Spleen” value in [3] (setting [10]) worked out at 0.5 ± 1.2 log10 CCID50/g. Also, in [3] (infected mice, 50 mg/kg/day i.p., days +1 through +10, P<0.01 vs saline), the “Mean Day to Death ± S.D.” value stood at 22.9 ± 1.1 days.
With `O=C(O)P(=O)(O)O` [FCV, phosphonoformic acid], the IC50 in [7] stood at 96 µM; in [8], 234 µM; in series [9] it was 385 µM.

The values above are taken from patent publication US5633230A, “Treatment of cytomegalovirus infection” (priority 1994, dated 1997).
